Values joined by “and” are separate entries in the source; they are usually repeats but may differ in a detail not shown here. Equal entries are not always repeated. Toxic doses and inconclusive results are not listed.
Tested on: BDF1 mice, P388 leukemia ip, median survival T/C
Assay: NCI In Vivo Anticancer Drug Screen. Data for tumor model P388 Leukemia (intraperitoneal) in B6D2F1 (BDF1) mice
Conditions: endpoint: median survival time, higher = longer survival
Procedure, shortened: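 Antitumour effect was judged in vivo: survival in drug-treated mice, normalised to that of vehicle-dosed controls, gives the reported T/C.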

[1] = dose: 12.5 mg/kg/injection, schedule: Q04DX003 (ip), vehicle: Klucel (hydroxypropylcellulose) (HPC)
[2] = dose: 25.0 mg/kg/injection, schedule: Q04DX003 (ip), vehicle: Klucel (hydroxypropylcellulose) (HPC)
[3] = dose: 50.0 mg/kg/injection, schedule: Q04DX003 (ip), vehicle: Klucel (hydroxypropylcellulose) (HPC)
[4] = dose: 100.0 mg/kg/injection, schedule: Q04DX003 (ip), vehicle: saline with Tween-80
[5] = dose: 200.0 mg/kg/injection, schedule: Q04DX003 (ip), vehicle: saline with Tween-80
[6] = dose: 400.0 mg/kg/injection, schedule: Q04DX003 (ip), vehicle: saline with Tween-80
[7] = dose: 25.0 mg/kg/injection, schedule: Q01DX009 (ip), vehicle: water
[8] = dose: 50.0 mg/kg/injection, schedule: Q01DX009 (ip), vehicle: water
[9] = dose: 100.0 mg/kg/injection, schedule: Q01DX009 (ip), vehicle: saline with Tween-80
[10] = dose: 50.0 mg/kg/injection, schedule: Q01DX009 (ip), vehicle: saline with Tween-80

COC1=C[C@H](C)[C@H]2C[C@@H]3OC(=O)CC[C@@H]3C[C@]2(C)C1=O
T/C (dose: 2.0 mg/kg/injection, schedule: Q01DX009 (ip), vehicle: saline + alcohol): 115 % of control | T/C (dose: 4.0 mg/kg/injection, schedule: Q01DX009 (ip), vehicle: saline + alcohol): 106 % of control | T/C (dose: 8.0 mg/kg/injection, schedule: Q01DX009 (ip), vehicle: saline + alcohol): 106 % of control | T/C (dose: 16.0 mg/kg/injection, schedule: Q01DX009 (ip), vehicle: saline + alcohol): 103 % of control

O=C(O)c1onc2ccccc12
T/C (dose: 100.0 mg/kg/injection, schedule: Q01DX001 (ip), vehicle: saline with Tween-80): 113 % of control | T/C (dose: 200.0 mg/kg/injection, schedule: Q01DX001 (ip), vehicle: saline with Tween-80): 90 % of control

NNC(=O)OC12CC3CC(CC(C3)C1)C2
T/C [1]: 105 % of control | T/C [2]: 105 % of control | T/C [3]: 120 % of control | T/C (dose: 63.75 mg/kg/injection, schedule: Q01DX001 (ip), vehicle: Klucel (hydroxypropylcellulose) (HPC)): 100 % of control | T/C (dose: 127.5 mg/kg/injection, schedule: Q01DX001 (ip), vehicle: Klucel (hydroxypropylcellulose) (HPC)): 122 % of control | T/C (dose: 255.0 mg/kg/injection, schedule: Q04DX003 (ip), vehicle: Klucel (hydroxypropylcellulose) (HPC)): 90 % of control

O=C1c2ccccc2S(=O)(=O)N1CC(O)COc1ccc(Cl)cc1 (configuration not stated)
T/C [4]: 104 % of control | T/C [5]: 100 % of control | T/C [6]: 95 % of control

Cc1cc(O)c(O)c(C(C)(C)CC(C)(C)C)c1
T/C (dose: 100.0 mg/kg/injection, schedule: Q04DX003 (ip), vehicle: saline + alcohol): 95 % of control | T/C (dose: 200.0 mg/kg/injection, schedule: Q04DX003 (ip), vehicle: saline + alcohol): 104 % of control | T/C (dose: 400.0 mg/kg/injection, schedule: Q04DX003 (ip), vehicle: saline + alcohol): 100 % of control

CC1CC=C(C2CC(C)CC(N(C)C)C2=N)CC1 (configuration not stated)
T/C (dose: 12.5 mg/kg/injection, schedule: Q01DX009 (sc), vehicle: olive oil, sesame oil, peanut oil): 104 % of control | T/C (dose: 25.0 mg/kg/injection, schedule: Q01DX009 (sc), vehicle: olive oil, sesame oil, peanut oil): 109 % of control | T/C (dose: 50.0 mg/kg/injection, schedule: Q01DX009 (sc), vehicle: olive oil, sesame oil, peanut oil): 113 % of control | T/C (dose: 100.0 mg/kg/injection, schedule: Q04DX003 (sc), vehicle: olive oil, sesame oil, peanut oil): 91 % of control | T/C (dose: 200.0 mg/kg/injection, schedule: Q04DX003 (sc), vehicle: olive oil, sesame oil, peanut oil): 104 % of control | T/C (dose: 400.0 mg/kg/injection, schedule: Q04DX003 (sc), vehicle: olive oil, sesame oil, peanut oil): 116 % of control

C[C@H]1C(=O)O[C@@H]2CCN3CC=C(COC(=O)[C@](C)(O)[C@@]1(C)O)[C@H]23
T/C (dose: 3.13 mg/kg/injection, schedule: Q01DX010 (ip), vehicle: saline): 100 % of control | T/C (dose: 6.2 mg/kg/injection, schedule: Q01DX009 (ip), vehicle: saline): 111 % of control | T/C (dose: 6.25 mg/kg/injection, schedule: Q01DX010 (ip), vehicle: saline): 100 % of control | T/C (dose: 12.5 mg/kg/injection, schedule: Q01DX009 (ip), vehicle: saline): 122 % of control | T/C (dose: 12.5 mg/kg/injection, schedule: Q01DX009 (ip), vehicle: water): 109 % of control | T/C (dose: 12.5 mg/kg/injection, schedule: Q01DX010 (ip), vehicle: saline): 104 % of control | T/C [7]: 86 % of control | T/C (dose: 25.0 mg/kg/injection, schedule: Q01DX010 (ip), vehicle: saline): 104 % of control | T/C [8]: 118 % of control | T/C (dose: 75.0 mg/kg/injection, schedule: Q01DX009 (ip), vehicle: water): 104 % of control

C=C(C)C(=O)OCC1CO1 (configuration not stated)
T/C [7]: 112 % of control | T/C [8]: 96 % of control | T/C (dose: 50.0 mg/kg/injection, schedule: Q01DX010 (ip), vehicle: saline): 100 % of control | T/C (dose: 100.0 mg/kg/injection, schedule: Q01DX009 (ip), vehicle: water): 99 % of control | T/C (dose: 100.0 mg/kg/injection, schedule: Q01DX010 (ip), vehicle: saline): 100 % of control | T/C (dose: 200.0 mg/kg/injection, schedule: Q01DX009 (ip), vehicle: water): 122 % of control | T/C (dose: 200.0 mg/kg/injection, schedule: Q01DX010 (ip), vehicle: saline): 104 % of control

O=C1C=C(c2ccccc2)C(O)(c2ccccc2)C1 (configuration not stated)
T/C [9]: 102 % of control | T/C (dose: 200.0 mg/kg/injection, schedule: Q01DX009 (ip), vehicle: saline with Tween-80): 88 % of control

C[N+]12CCCc3cc(CO)cc(c31)CCC2
T/C [1]: 103 % of control | T/C [2]: 100 % of control | T/C [3]: 119 % of control

CCCC(O)(CCC)CC(=O)OCC
T/C (dose: 100.0 mg/kg/injection, schedule: Q04DX003 (ip), vehicle: saline sonified): 104 % of control | T/C (dose: 200.0 mg/kg/injection, schedule: Q04DX003 (ip), vehicle: saline sonified): 109 % of control | T/C (dose: 400.0 mg/kg/injection, schedule: Q04DX003 (ip), vehicle: saline sonified): 113 % of control

COc1ccc(/C=C/C(C)=O)cc1OC
T/C (dose: 25.0 mg/kg/injection, schedule: Q01DX009 (ip), vehicle: saline): 94 % of control | T/C (dose: 25.0 mg/kg/injection, schedule: Q04DX003 (ip), vehicle: saline): 107 % of control | T/C (dose: 50.0 mg/kg/injection, schedule: Q01DX009 (ip), vehicle: saline): 99 % of control | T/C (dose: 50.0 mg/kg/injection, schedule: Q04DX003 (ip), vehicle: saline): 106 % of control | T/C (dose: 100.0 mg/kg/injection, schedule: Q01DX009 (ip), vehicle: saline): 110 % of control | T/C (dose: 100.0 mg/kg/injection, schedule: Q04DX003 (ip), vehicle: saline): 105 % of control | T/C (dose: 200.0 mg/kg/injection, schedule: Q01DX009 (ip), vehicle: saline): 103 % of control | T/C (dose: 200.0 mg/kg/injection, schedule: Q04DX003 (ip), vehicle: saline): 100 % of control | T/C (dose: 400.0 mg/kg/injection, schedule: Q01DX009 (ip), vehicle: saline): 108 % of control | T/C (dose: 400.0 mg/kg/injection, schedule: Q04DX003 (ip), vehicle: saline): 107 % of control

COc1cc(NC(=O)C(C)NC(=O)C(N)CCCCN)cc2ccccc12 (configuration not stated)
T/C (dose: 50.0 mg/kg/injection, schedule: Q01DX005 (ip), vehicle: suspension in saline): 95 % of control | T/C (dose: 100.0 mg/kg/injection, schedule: Q01DX005 (ip), vehicle: suspension in saline): 90 % of control

NC(=S)N/N=C/c1ccc(OC(=O)COc2ccccc2)cn1
T/C (dose: 1.56 mg/kg/injection, schedule: Q01DX009 (ip), vehicle: saline with Tween-80): 124 % of control | T/C (dose: 12.5 mg/kg/injection, schedule: Q01DX009 (ip), vehicle: saline with Tween-80): 163 % of control | T/C (dose: 25.0 mg/kg/injection, schedule: Q01DX009 (ip), vehicle: saline with Tween-80): 181 % of control | T/C [10]: 209 % of control | T/C [9]: 235 % of control

OCCNCCNCC[OH2+].OCCNCCNCC[OH2+].[Cu+2].[O-][Cl+3]([O-])([O-])[O-]
T/C (dose: 12.5 mg/kg/injection, schedule: Q01DX009 (ip), vehicle: other): 99 % of control | T/C (dose: 25.0 mg/kg/injection, schedule: Q01DX009 (ip), vehicle: other): 115 % of control | T/C (dose: 50.0 mg/kg/injection, schedule: Q01DX009 (ip), vehicle: other): 109 % of control

CCCCCC[N+](CCCCCC)(CCCCCC)CCCCCC
T/C (dose: 3.0 mg/kg/injection, schedule: Q01DX009 (ip), vehicle: saline with Tween-80): 123 % of control | T/C (dose: 6.0 mg/kg/injection, schedule: Q01DX009 (ip), vehicle: saline with Tween-80): 116 % of control and 119 % of control | T/C (dose: 6.25 mg/kg/injection, schedule: Q01DX009 (ip), vehicle: saline with Tween-80): 114 % of control | T/C (dose: 6.25 mg/kg/injection, schedule: Q04DX003 (ip), vehicle: saline with Tween-80): 108 % of control | T/C (dose: 12.5 mg/kg/injection, schedule: Q04DX003 (ip), vehicle: saline with Tween-80): 95 % of control | T/C (dose: 25.0 mg/kg/injection, schedule: Q04DX003 (ip), vehicle: saline with Tween-80): 113 % of control

CCCCNC1=C(N2CC2)C(=O)C(NCCCC)=C(N2CC2)C1=O
T/C (dose: 1.25 mg/kg/injection, schedule: Q01DX009 (ip), vehicle: saline): 107 % of control | T/C (dose: 5.0 mg/kg/injection, schedule: Q01DX009 (ip), vehicle: saline): 87 % of control

Oc1cccc2cccnc12
T/C [10]: 100 % of control | T/C [9]: 97 % of control

COC(=O)c1ccc2oc(=O)cc(C)c2c1O
T/C [4]: 104 % of control | T/C [5]: 100 % of control | T/C [6]: 95 % of control
